Assay results as given in the supplement of paper PMC8671470.

Assays:
Assay in all cases: cell viability (% survival relative to DMSO control, bortezomib = 0%); higher = less cytotoxic
Settings in all cases: 72 h
HEL = test system: HEL
How it was run: (§1)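 Seeding density for each of the 10 AML and 5 CML cell lines was titrated to the linear growth range. Cells went into 384-well plates pre-printed in duplicate with compounds at 1, 10, 100, 1000 or 10000 nM and were held for 72 h at 37 °C with 5% CO2. CellTiter-Glo luminescence then provided the readout. Percent survival is expressed relative to vehicle at 100% and a 10 µM positive control at 0%, averaged over duplicates.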

MV4-11 = test system: MV4-11
How it was run: as §1

Mono-Mac-6 = test system: Mono-Mac-6
How it was run: as §1

NOMO-1 = test system: NOMO-1
How it was run: as §1

| Structure (SMILES) | cell viability (HEL; 1 nM) [%] | cell viability (HEL; 10 nM) [%] | cell viability (HEL; 100 nM) [%] | cell viability (HEL; 1000 nM) [%] | cell viability (HEL; 10000 nM) [%] | cell viability (MV4-11; 1 nM) [%] | cell viability (MV4-11; 10 nM) [%] | cell viability (MV4-11; 100 nM) [%] | cell viability (MV4-11; 1000 nM) [%] | cell viability (MV4-11; 10000 nM) [%] | cell viability (Mono-Mac-6; 1 nM) [%] | cell viability (Mono-Mac-6; 10 nM) [%] | cell viability (Mono-Mac-6; 100 nM) [%] | cell viability (Mono-Mac-6; 1000 nM) [%] | cell viability (Mono-Mac-6; 10000 nM) [%] | cell viability (NOMO-1; 1 nM) [%] | cell viability (NOMO-1; 10 nM) [%] | cell viability (NOMO-1; 100 nM) [%] | cell viability (NOMO-1; 1000 nM) [%] | cell viability (NOMO-1; 10000 nM) [%] |
| --- | --- | --- | --- | --- | --- | --- | --- | --- | --- | --- | --- | --- | --- | --- | --- | --- | --- | --- | --- | --- |
| OCCN1CCN(CCCN2c3ccccc3Sc3ccc(Cl)cc32)CC1 [Perphenazine] | 120 | 107 | 90.1 | 108 | 107 | 102 | 96 | 93.4 | 92.8 | 9.41 | 97.2 | 106 | 102 | 100 | 54.6 | 112 | 93.1 | 106 | 108 | 56.9 |
| C=CCc1ccc2c(c1O)C(=O)c1ccccc1C2=O [R162] | 104 | 101 | 103 | 106 | 110 | 100 | 97.4 | 102 | 130 | 121 | 101 | 93.4 | 103 | 123 | 115 | 99 | 92.1 | 96.2 | 105 | 100 |
| O=C(c1ccc(OCCN2CCCCC2)cc1)c1c(-c2ccc(O)cc2)sc2cc(O)ccc12 [Raloxifene] | 90.2 | 97.7 | 96.3 | 98.4 | 87.4 | 93.9 | 102 | 85.4 | 93.3 | 58.9 | 109 | 95.2 | 107 | 104 | 77 | 100 | 95.8 | 99.3 | 100 | 86.5 |
| NC(=O)c1ncn([C@@H]2O[C@H](CO)[C@@H](O)[C@H]2O)n1 [Ribavirin] | 92.5 | 104 | 111 | 113 | 112 | 110 | 92.1 | 89.8 | 137 | 81.8 | 92.1 | 103 | 96.4 | 101 | 112 | 99 | 102 | 103 | 106 | 103 |
| Nc1ncnc2c1ncn2[C@@H]1O[C@H](CSCC[C@H](N)C(=O)O)[C@@H](O)[C@H]1O [S-Adenosyl Homocysteine] | 108 | 114 | 104 | 101 | 113 | 110 | 113 | 91.8 | 97 | 86.1 | 96.7 | 101 | 96.9 | 104 | 93.7 | 101 | 104 | 103 | 98.1 | 104 |
| CCCc1nn(C)c2c(O)nc(-c3cc(S(=O)(=O)N4CCN(C)CC4)ccc3OCC)nc12 [Sildenafil] | 96.8 | 115 | 100 | 108 | 122 | 99.6 | 95.1 | 101 | 98.8 | 119 | 87.9 | 110 | 100 | 110 | 105 | 86.9 | 104 | 93.2 | 96.8 | 94.9 |
